Columns and labels:
[1] = target: T1, full-length hepatitis C NS3 protease enzyme with NS4A cofactor (HCV NS3/4A protease complexes) (Hepatitis C virus genotype 1a, UniProt P27958); assay: HCV NS3/4A protease inhibition assay (enzymatic); type: biochemical; conditions: full-length NS3 1 nM, 25 μM NS4A cofactor, 0.5 μM depsipeptide substrate, 30° C., competitive inhibition model
T1 construct: full-length hepatitis C NS3 protease enzyme
Procedure: [Landro, 1997 #Biochem 36 9340-9348]. […] The solutions were stored at −20° C. between measurements.
The final concentration of DMSO in the assay sample is adjusted to 3.3%. The rate of hydrolysis is corrected for inner filter effects according to published procedures. [Liu, 1999 Analytical Biochemistry 267 331-335]. […] A minimum of two replicates are performed for all measurements.

[2] = test system: HCV replicons (NS3-NS5B regions of HCV type 1b) in Huh-7 luc/neo cells; assay: HCV replicon assay (Huh-Luc cells, luciferase readout); type: cell-based; conditions: Hepatitis C virus, Huh-7, 72 h, HCV type 1b replicon, three days incubation, luciferase activity
Description: The compounds of formula (I) were examined for activity in the inhibition of HCV RNA replication in a cellular assay. […] The cellular assay was based on a bicistronic expression construct, as described by Lohmann et al. (1999) Science vol. 285 pp. 110-113 with modifications described by Krieger et al. (2001) Journal of Virology 75: 4614-4624, in a multi-target screening strategy. In essence, the method was as follows.
The assay utilized the stably transfected cell line Huh-7 luc/neo (hereafter referred to as Huh-Luc). This cell line harbors an RNA encoding a bicistronic expression construct comprising the wild type NS3-NS5B regions of HCV type 1b translated from an Internal Ribosome Entry Site (IRES) from encephalomyocarditis virus (EMCV), preceded by a reporter portion (FfL-luciferase), and a selectable marker portion (neo^R, neomycine phosphotransferase). […]
The replicon cells were plated in 384 well plates in the presence of the test and control compounds which were added in various concentrations. Following an incubation of three days, HCV replication was measured by assaying luciferase activity (using standard luciferase assay substrates and reagents and a Perkin Elmer ViewLux™ ultraHTS microplate imager). […] The inhibitory activity of the compound on luciferase activity was monitored on the Huh-Luc cells, enabling a dose-response curve for each test compound.

T1 sequence (P27958 1027-1657, one chain of several): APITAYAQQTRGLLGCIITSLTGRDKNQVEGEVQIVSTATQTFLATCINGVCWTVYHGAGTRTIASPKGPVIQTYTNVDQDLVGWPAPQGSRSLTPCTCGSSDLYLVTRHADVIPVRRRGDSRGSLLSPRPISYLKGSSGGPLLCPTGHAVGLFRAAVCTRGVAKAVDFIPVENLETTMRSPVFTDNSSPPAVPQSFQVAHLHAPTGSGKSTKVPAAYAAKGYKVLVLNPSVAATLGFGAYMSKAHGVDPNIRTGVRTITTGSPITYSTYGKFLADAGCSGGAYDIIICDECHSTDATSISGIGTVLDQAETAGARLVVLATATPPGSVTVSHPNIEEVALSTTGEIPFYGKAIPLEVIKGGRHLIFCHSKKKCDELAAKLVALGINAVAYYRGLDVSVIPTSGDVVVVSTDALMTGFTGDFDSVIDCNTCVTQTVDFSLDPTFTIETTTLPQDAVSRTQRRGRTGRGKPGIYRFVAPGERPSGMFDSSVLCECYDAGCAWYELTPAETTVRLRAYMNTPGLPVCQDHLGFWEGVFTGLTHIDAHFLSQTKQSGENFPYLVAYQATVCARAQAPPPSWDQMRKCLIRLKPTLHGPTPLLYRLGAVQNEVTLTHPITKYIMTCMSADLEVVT

COc1ccc2c(O[C@@H]3C[C@H]4C(=O)N[C@]5(C(=O)O)CC5/C=C\CCCCN(N(C)C)C(=O)[C@@H]4C3)cc(-c3ccccc3)nc2c1 (stereo partly shown) [Example 88, 13-Dimethylamino-17-(7-methoxy-2-phenyl-quinolin-4-yloxy-2,14-dioxo-3,13-diaza-tricyclo[13.3.0.0*4,6*]octadec-7-ene-4-carboxylic acid]
Ki [1]: 100 to 2000 nM | EC50 [2]: 1000 to 10000 nM

COc1ccc2c(O[C@@H]3C[C@H]4C(=O)N[C@]5(C(=O)NS(=O)(=O)C6CC6)CC5/C=C\CCCCN(N(C)C)C(=O)[C@@H]4C3)cc(-c3ccccc3)nc2c1 (stereo partly shown) [Example 89, Cyclopropanesulphonic acid [13-dimethylamino-17-(7-methoxy-2-phenyl-quinolin-4-yloxy)-2,14-dioxo-3,13-diaza-tricyclo[13.3.0.0*4,6*]octadec-7-ene-4-carbonyl]-amide]
Ki [1]: 0.1 to 4.9 nM | EC50 [2]: 0.5 to 49 nM

— patent US7700552B2, “Macrocyclic inhibitors of hepatitis C virus” (Medivir AB, priority 2005, dated 2010)
